Experimental findings from patent publication US20250360142A1, “NOVEL ATP-SENSITIVE POTASSIUM CHANNEL POTENTIATORS, THEIR PREPARATION AND USE” (RHYTHM PHARMACEUTICALS, INC., priority 2022, published 2025) are described below.

pIC50: −log10 of the molar value.

The subject of one experiment is INS-1E cells. The experiment in a line: Glucose stimulated insulin secretion assay (GSIS) in INS-1E cells. The note with it: for % inhibition of Insulin (Average Inhibition (%)) / pIC50: INS-1E cell line; for pIC50 / inhibition at 10 µM: Rattus norvegicus; for inhibition at 10 µM: INS-1E cells. Format: cell-based, rat. As for the experimental part:
(§1) INS-1E, rat pancreatic tumor (insulinoma) cells were used in the GSIS assay. INS-1E cells were thawed and incubated in culture medium (CM) (RPMI 1640+Glucose q.s., HEPES 25 mM, Na-Pyruvat 1 mM, 2-Mercaptoethanol 50 μM, Fetal Calf Serum; heat inactivated (FCS) 10%, Penicillin/Streptomycin 100 U/ml) at 37° C.; 5% CO2 in a humidified atmosphere. 96 welled plates are coated with Matrigel by incubating the plates with 1 ml pre-diluted 1:10 with cold basal medium with 100 μl/well at 37° C. for 1 hour. Matrigel is then removed and replaced with 100 μl CM. Cells are then seeded into the wells as 70 000 cells/well. CM is refreshed with 200 μl fresh CM on the third day. CM is refreshed again with 200 μl fresh CM on the sixth day. GSIS assay is performed on the seventh day and cells in wells are washed with PKrebs®BSA and incubated with 100 μL/well for 2 h. Secretion plates are placed in an incubator at 37° C., 5% C02 and saturated humidity for 60 min. Meanwhile, lysis solution is prepared by adding 1 tablet of protease inhibitor/10 mL TETG solution and kept at 4° C. until the end of the experiment. The other incubation buffers are prepared without adding pharmacological compounds, aliquoted and then placed in a water bath at 37° C. The samples are prepared including negative (βKrebs®B0=0 mM Glucose) and positive controls (PKrebs®B20=20 mM Glucose) and each compound to be tested is diluted in DMSO as having a series of final concentration including 10.00, 4.00, 1.60, 0.64, 0.26, 0.10, 0.04, 0.02 μM.
(§2) After 2 hours of starvation, glucose stimulation and treatments are initiated. KRB Buffer from cells is removed by pipetting. The solutions are homogenized and the cells are treated with 90 µL/well. 10 μl from 10-fold compound dilution is added to the assay plate (final 100 μl/well) according to the following layout for each compound to be tested.
(§3) Incubation time is 40 minutes. Plates are placed in an incubator at 37° C., 5% CO2 and saturated humidity. After incubation, 80 μL of supernatants are collected without disrupting the cell layer and stored at 4° C. or on ice until centrifugation. Remaining medium are removed from each well and 100 μL/well of cold lysis solution is added and incubated for minimum 2 minutes at room temperature. Cell lysis is observed under microscope and waited for maximum for 5 more minutes until the lysis is complete. Cell lysates are collected and all samples including supernatants are centrifuged at 700×g, 5 min at 4° C. 30 μL of each samples are transferred into aliquots for ELISA. ELISA is performed with HTRF Assay Kit comprising an insulin high range kit supplied by Cisbio/Perkin Elmer. 5 μl of each Insulin standard and 5 μl of either supernatant or lysate are transferred on HTRF plate. 40 μl/well of Anti-insulin—XL665 and 20 μl/well of Anti-insulin—EU are added to each well and the plate is read on HTRF compatible reader (fluorescence 620 nm & 665 nm).

The next experiment relates to EndoC-βH1 Cell Line. The experiment in a line: GSIS assay in EndoC-βH1 cell line. It counts as cell-based. As for the experimental part:
as §1, §2, §3
GSIS experiments were also performed in other cell lines, e.g., EndoC-βH1, a canonical cell line for screening new therapeutic compounds.

In general, pIC50 refers to the negative decadic logarithm of the IC50, by convention in mol/L. The low end stands for a large IC50, the high end for a small IC50. For `C[C@@H]1CC1NC1=NS(=O)(=O)c2cc(F)c(Cl)cc2N1` (mixture of isomers) [Compound 25, (rac)-trans-6-chloro-7-fluoro-3-((2-methylcyclopropyl)amino)-4H-benzo[e][1,2,4|thiadiazine 1,1-dioxide], the “% inhibition of Insulin (Average Inhibition (%))” value with INS-1E cells is given as “C (C is equal to 10-25% inhibition)”. Moreover, the negative logarithm of the IC50 (pIC50) in the experiment on EndoC-βH1 Cell Line was 5.70 to 6.00. For orientation: inhibition means the drop in the measured response relative to a control, in per cent. A lower inhibition goes with a response near the control. For `O=S1(=O)N=C(NC23CC(C2)C3)Nc2ccc(F)cc21` [Compound 1, 3-(bicyclo[1.1.1]pentan-1-ylamino)-7-fluoro-4H-benzo[e][1,2,4] thiadiazine 1,1-dioxide], in the experiment on INS-1E cells, the negative logarithm of the IC50 (pIC50) is 6.00 to 6.30 and the inhibition at 10 µM is at least 50%. Further, the pIC50 in the experiment with EndoC-βH1 Cell Line is over 6.30. As to `O=S1(=O)N=C(NC23CC(C2)C3)Nc2cc(Cl)c(F)cc21` [Compound 14, 3-(bicyclo[1.1.1]pentan-1-ylamino)-6-chloro-7-fluoro-4H-benzo[e][1,2,4] thiadiazine 1,1-dioxide], the pIC50 in the experiment with INS-1E cells and with EndoC-βH1 Cell Line was over 6.30 throughout. The same molecule gave an inhibition at 10 µM with INS-1E cells of at least 50%. Take `O=S1(=O)N=C(NC2CC23CCC3)Nc2cc(Cl)c(F)cc21` (stereo not drawn) [Compound 15, 6-chloro-7-fluoro-3-(spiro[2.3]hexan-1-ylamino)-4H-benzo[e][1,2,4]thiadiazine 1,1-dioxide]: the pIC50 in the experiment on INS-1E cells and in the experiment on EndoC-βH1 Cell Line was over 6.30 in each case. With `O=S1(=O)N=C(NC23CC(F)(C2)C3)Nc2cc(Cl)c(F)cc21` [Compound 19, 6-chloro-7-fluoro-3-((3-fluorobicyclo[1.1.1]pentan-1-yl)amino)-4H-benzo[e][1,2,4]thiadiazine 1,1-dioxide], the “% inhibition of Insulin (Average Inhibition (%))” value in the experiment on INS-1E cells is reported as “C (C is equal to 10-25% inhibition)”. The molecule further showed a negative-log IC50 (pIC50) in the experiment with EndoC-βH1 Cell Line of at most 5.70. In the experiment with EndoC-βH1 Cell Line, `CC1(C)CC1NC1=NS(=O)(=O)c2cc(F)c(Cl)cc2N1` (stereo not drawn) [Compound 20, 6-chloro-3-((2,2-dimethylcyclopropyl)amino)-7-fluoro-4H-benzo[e][1,2,4] thiadiazine 1,1-dioxide] had a negative logarithm of the IC50 (pIC50) of over 6.30.

In the case of `CC1(NC2=NS(=O)(=O)c3cc(F)c(Cl)cc3N2)CCC1` [Compound 24, 6-chloro-7-fluoro-3-((1-methylcyclobutyl)amino)-4H-benzo[e][1,2,4]thiadiazine 1,1-dioxide], the pIC50 with EndoC-βH1 Cell Line was over 6.30.

Molecule `O=S1(=O)N=C(NC2CC23CC3)Nc2cc(Cl)c(F)cc21` (stereo not drawn) [Compound 28, 6-chloro-7-fluoro-3-(spiro[2.2]pentan-1-ylamino)-4H-benzo[e][1,2,4]thiadiazine 1,1-dioxide] gave a negative-log IC50 (pIC50) in the experiment on EndoC-βH1 Cell Line of over 6.30.
